Test results from PMC10301432, “Antiplasmodial, Trypanocidal, and Genotoxicity In Vitro Assessment of New Hybrid α,α-Difluorophenylacetamide-statin Derivatives” (Pharmaceuticals, 2023).

Legend:
[1] = system: Salmonella enterica serovar Typhimurium TA98; test: Salmonella/microsome assay, TA98
Experimental: (§1) Salmonella enterica serovar Typhimurium (S. typhimurium) strains TA97, TA98, TA100, TA104 and TA102 from the authors’ stock were used as described in the mutagenicity assay.
(§2) To determine the cytotoxic effects, after 30 min pre-incubation, the assay mixtures were diluted in 0.9% NaCl (w/v) to obtain a suspension containing 2 × 10^2 cells/mL. […] The plates were then incubated at 37 °C for 24 h and the colonies counted. All the experiments were conducted in triplicate and were repeated at least twice. Statistical differences between the groups were analyzed by a two-way ANOVA (p < 0.05) and Tukey’s post hoc test.

[2] = Salmonella/microsome assay, TA98; details: Salmonella enterica serovar Typhimurium, S. typhimurium TA98 without S9 mix, pH 7.4
Experimental: as §1, §2

[3] = in vitro; format: cell-based; details: mouse
Experimental: Primary cultures of cardiac cells (CC) were obtained as reported in [50]. The cultures were sustained in Dulbecco’s modified Eagle’s medium (DMEM) supplemented with 10% horse serum, 5% fetal bovine serum (FBS), 2.5 mM CaCl2, 1 mM L-glutamine, and 2% chicken embryo extract. Cell cultures were maintained at 37 °C in an atmosphere of 5% CO2, and assays were run at least three times in triplicate.
Cardiac cell cultures were incubated for 24 h at 37 °C with different concentrations of the compounds (up to 200 µM) diluted in DMEM (without phenol red). Their morphology and spontaneous contractibility were evaluated by light microscopy and then the cellular viability was determined by the PrestoBlue® assay. For this colorimetric bioassay, PrestoBlue® (Invitrogen, Waltham, MA, USA) was added to each well (using a 10:1 medium/dye), the plate was further incubated for 24 h followed by optical density (OD) measurement performed at 570 and 600 nm, as recommended by the manufacturer.

[4] = Salmonella/microsome assay, TA100; details: Salmonella enterica serovar Typhimurium, S. typhimurium TA100 without S9 mix, pH 7.4
[5] = system: intracellular forms of T. cruzi (Tulahuen strain transfected with β-galactosidase); test: Activity against intracellular T. cruzi in L929 cells; format: cell-based, Trypanosoma cruzi; details: for EC50: intracellular forms, Tulahuen strain
Experimental: Tissue culture-derived trypomastigotes (Tulahuen strain expressing the E. coli β-galactosidase gene) were maintained in L929 cell lines and collected from the supernatant after 96 h of parasite infection, following previously established protocols. Briefly, after 24 h of L929 platting (4 × 10^3 cells/well), the cultures were incubated with trypomastigotes (10:1 parasite/host cell ratio) for 2 h at 37 °C. Then, the cell cultures were rinsed to remove non-internalized parasites and then further incubated for 24 h at 37 °C. Then the infected cultures were followed using two sequential protocols. […] After this period, 50 µL chlorophenol red glycoside (500 µM) in 0.5% Nonidet P40 was added to each well and the plate was incubated for more than 18 h at 37 °C, after which the absorbance was measured at 570 nm. […] Controls with untreated and Bz-treated cells are run in parallel. The results were expressed as the percent difference in the reduction between treated and untreated cells.

[6] = system: T. cruzi; test: Trypanocidal in vitro phenotypic screening, overall outcome; format: cell-based, Trypanosoma cruzi; details: summarized outcome
Experimental: Bloodstream trypomastigote forms (BT) of the Y strain were obtained from infected albino Swiss mice at the peak of parasitemia, isolated by differential centrifugation and resuspended in DMEM to a parasite concentration of 10^7 cells/mL in the presence of 10% of mouse blood. This suspension (100 µL) was added in the same volume of 13 (a–d) and 14 (a–d) previously prepared at twice the desired final concentrations.
Tissue culture-derived trypomastigotes (Tulahuen strain expressing the E. coli β-galactosidase gene) were maintained in L929 cell lines and collected from the supernatant after 96 h of parasite infection, following previously established protocols. Briefly, after 24 h of L929 platting (4 × 10^3 cells/well), the cultures were incubated with trypomastigotes (10:1 parasite/host cell ratio) for 2 h at 37 °C. Then, the cell cultures were rinsed to remove non-internalized parasites and then further incubated for 24 h at 37 °C. Then the infected cultures were followed using two sequential protocols. […] After this period, 50 µL chlorophenol red glycoside (500 µM) in 0.5% Nonidet P40 was added to each well and the plate was incubated for more than 18 h at 37 °C, after which the absorbance was measured at 570 nm. Then, the compounds were next evaluated using dose–response assays in which Tulahuen-infected-L929 cells were exposed to different non-toxic concentrations of each compound (0–50 µM) and then after 96 h of incubation the same procedure was conducted as above reported. Controls with untreated and Bz-treated cells are run in parallel. The results were expressed as the percent difference in the reduction between treated and untreated cells.

[7] = in vitro; details: Salmonella enterica serovar Typhimurium, pH 7.4
[8] = system: Salmonella enterica serovar Typhimurium TA97; test: Salmonella/microsome assay, TA97
Experimental: as §1, §2

[9] = Salmonella/microsome assay, TA97; details: Salmonella enterica serovar Typhimurium, S. typhimurium TA97 without S9 mix, pH 7.4
Experimental: as §1, §2

[10] = in vitro; format: cell-based; details: human
Experimental: (§3) Human hepatocellular carcinoma (HepG2) and Chinese Hamster Ovary (CHO-K1) cells obtained from the American Type Culture Collection (Manassas, VA, USA) were cultured in Eagle’s medium (MEM, Gibco®, Waltham, MA, USA) containing 10% fetal bovine serum (FBS) plus 100 µg/mL streptomycin and 100 µg/mL penicillin at 37 °C in a 5% CO2 atmosphere. Logarithmic-phase cells were used in all the experiments.
(§4) Fresh HepG2 and CHO-K1 cells were seeded at a density of 1 × 10^4/well. […] Briefly, after treatment, the culture medium was replaced by 90 μL fresh culture medium and 10 μL WST-1 reagent and incubated at 37 °C and 5% CO2 for 3 h. The absorbance was then measured at 440 nm according to the kit protocol.

[11] = system: human hepatoma cell line (HepG2); test: in vitro; format: cell-based; details: preliminary cytotoxicity, HepG2
Experimental: as §3, §4

[12] = Trypanosoma cruzi, TULAHUEN, L929, 96 h, 96 h

CC(=O)Nc1ccc(C)cc1C(F)(F)C(=O)NCC[C@@H]1C[C@H](CC(=O)OC(C)(C)C)OC(C)(C)O1 [Compound 13b, tert-Butyl 2-((4R,6R)-6-(2-(2-(2-acetamido-5-methylphenyl)-2,2-difluoroacetamido)ethyl)-2,2-dimethyl-1,3-dioxan-4-yl)acetate]
revertant His+ colonies TA98 ([1]; +S9, 3 µM): 27 ± 5 | revertant His+ colonies TA98 ([1]; +S9, 15 µM): 27 ± 1 | revertant His+ colonies TA98 ([1]; +S9, 30 µM): 27 ± 5 | revertant His+ colonies TA98 ([1]; +S9, 150 µM): 27 ± 5 | revertant His+ colonies TA98 ([1]; +S9, 300 µM): 39 ± 1 | revertant His+ colonies TA98 ([1]; +S9, 1500 µM): 45 ± 4 | revertant His+ colonies TA98 ([1]; −S9, 3 µM): 18 ± 2 | revertant His+ colonies TA98 ([1]; −S9, 15 µM): 19 ± 3 | revertant His+ colonies TA98 ([1]; −S9, 30 µM): 21 ± 5 | revertant His+ colonies TA98 ([1]; −S9, 150 µM): 22 ± 2 | revertant His+ colonies TA98 ([1]; −S9, 300 µM): 22 ± 2 | revertant His+ colonies TA98 ([1]; −S9, 1500 µM): 26 ± 4 | CC50 at 30 min [2]: > 1500 µM | CC50 at 24 h [3]: > 500 µM | CC50 at 30 min [4]: > 1500 µM | EC50 [5, 12]: ≥ 50 µM | 10µM (% of Parasite Lysis) ([5]; fixed concentration 10 µM, 96 h): 25.41 ± 10.90% | EC50 ([5]; 96 h): > 50 µM | Trypanocidal Activity [6]: No | CC50 [7]: > 1500 µM | revertant His+ colonies TA97 ([8]; +S9, 3 µM): 189 ± 43 | revertant His+ colonies TA97 ([8]; +S9, 15 µM): 183 ± 43 | revertant His+ colonies TA97 ([8]; +S9, 30 µM): 216 ± 47 | revertant His+ colonies TA97 ([8]; +S9, 150 µM): 231 ± 5 | revertant His+ colonies TA97 ([8]; +S9, 300 µM): 244 ± 23 | revertant His+ colonies TA97 ([8]; +S9, 1500 µM): 288 ± 33 | revertant His+ colonies TA97 ([8]; −S9, 3 µM): 69 ± 12 | revertant His+ colonies TA97 ([8]; −S9, 15 µM): 76 ± 7 | revertant His+ colonies TA97 ([8]; −S9, 30 µM): 75 ± 12 | revertant His+ colonies TA97 ([8]; −S9, 150 µM): 74 ± 12 | revertant His+ colonies TA97 ([8]; −S9, 300 µM): 84 ± 7 | revertant His+ colonies TA97 ([8]; −S9, 1500 µM): 89 ± 27 | CC50 at 30 min [9]: > 1500 µM | CC50 at 24 h [10]: > 1000 µM | lack of toxic events up to [11]: up to 400 μM

CC(=O)Nc1ccc(Cl)cc1C(F)(F)C(=O)NCC[C@@H]1C[C@H](CC(=O)OC(C)(C)C)OC(C)(C)O1 [Compound 13c, tert-Butyl 2-((4R,6R)-6-(2-(2-(2-acetamido-5-chlorophenyl)-2,2-difluoroacetamido)ethyl)-2,2-dimethyl-1,3-dioxan-4-yl)acetate]
revertant His+ colonies TA98 ([1]; +S9, 3 µM): 34 ± 4 | revertant His+ colonies TA98 ([1]; +S9, 15 µM): 35 ± 3 | revertant His+ colonies TA98 ([1]; +S9, 30 µM): 39 ± 3 | revertant His+ colonies TA98 ([1]; +S9, 150 µM): 37 ± 7 | revertant His+ colonies TA98 ([1]; +S9, 300 µM): 47 ± 4 | revertant His+ colonies TA98 ([1]; +S9, 1500 µM): 49 ± 5 | revertant His+ colonies TA98 ([1]; −S9, 3 µM): 21 ± 2 | revertant His+ colonies TA98 ([1]; −S9, 15 µM): 21 ± 5 | revertant His+ colonies TA98 ([1]; −S9, 30 µM): 21 ± 3 | revertant His+ colonies TA98 ([1]; −S9, 150 µM): 21 ± 2 | revertant His+ colonies TA98 ([1]; −S9, 300 µM): 21 ± 1 | revertant His+ colonies TA98 ([1]; −S9, 1500 µM): 23 ± 4 | CC50 at 24 h [3]: > 500 µM | SI ([5]; LC50 (L929)/EC50 (intracellular forms)): 16.7 | EC50 [5, 12]: 9.24 ± 1.06 µM | Trypanocidal Activity [6]: Yes | revertant His+ colonies TA97 ([8]; +S9, 3 µM): 219 ± 16 | revertant His+ colonies TA97 ([8]; +S9, 15 µM): 245 ± 22 | revertant His+ colonies TA97 ([8]; +S9, 30 µM): 247 ± 14 | revertant His+ colonies TA97 ([8]; +S9, 150 µM): 249 ± 17 | revertant His+ colonies TA97 ([8]; +S9, 300 µM): 259 ± 1 | revertant His+ colonies TA97 ([8]; +S9, 1500 µM): 261 ± 13 | revertant His+ colonies TA97 ([8]; −S9, 3 µM): 81 ± 6 | revertant His+ colonies TA97 ([8]; −S9, 15 µM): 84 ± 8 | revertant His+ colonies TA97 ([8]; −S9, 30 µM): 84 ± 6 | revertant His+ colonies TA97 ([8]; −S9, 150 µM): 70 ± 6 | revertant His+ colonies TA97 ([8]; −S9, 300 µM): 71 ± 11 | revertant His+ colonies TA97 ([8]; −S9, 1500 µM): 62 ± 9 | CC50 at 24 h [10]: > 1000 µM | lack of toxic events up to [11]: up to 400 μM
